{
  "source": "patent US20220142967A1",
  "about": "“Methods and Compositions for the Treatment of Multiple Sclerosis” (SYMBIONYX PHARMACEUTICALS INC, priority 2018, published 2022)",
  "key": {"cultured astrocytes": {"tested_on": "cultured astrocytes", "assay": "RNA-seq of cultured astrocytes compared with MS patient white matter astrocytes (GSE83670)", "assay_type": "cell-based, human", "method": "Previously, Waller et al. 2016 (J Neuroimmunol 299:139-146) used laser capture microdissection (LCM) to isolate astrocytes from normal appearing white matter in MS patients and CTL subjects (GEO dataset GSE83670; PMID: 27125112).\ncDNA sequencing was performed by the University of Michigan sequencing core facility (50 cycle single end Illumina HiSeq 2000). The FASTX-Toolkit was used to filter reads by removing low quality sequences and initial quality assessments were performed using FastQC. Quality-filtered reads were mapped to the human genome (hg38/GRCh38, UCSC) using tophat2 with default settings, except multi-mapping of reads to multiple genome locations was disallowed (settings: -g 1 —no-coverage-search). The hg38/GRCh38 genome is the most recent release available from UCSC. HTSeq was used to tabulate the number of reads mapping to each genome feature and Cufflinks was used to calculate FPKM estimates and associated confidence intervals. RSeQC was used to assess quality of mapping and calculate the percentage of mapped reads. The negative binomial model (edgeR) was used to evaluate differential expression, with read counts normalized using the weighted trimmed mean of M-values method, and dispersions estimated using the Cox-Reid (CR)-adjusted likelihood approach. Differential expression analyses were performed using genes with detectable expression in at least 1 of 4 samples involved in a given comparison. A gene was considered to have detectable expression in a sample if the count per million mapped reads (cpm) estimate was greater than 0.20 and if the lower bound of the FPKM 95% confidence interval was greater than zero.\nFIG. 3 presents in scatterplot and histogram format the results of the study on the astrocytes. Scatterplots (A) and (D) compare fold change (FC) estimates in DMF-treated (A) and IDMF-treated (D) astrocytes to LCM-dissected astrocytes in MS patients and healthy controls (CTLs). Each point represents a protein-coding gene and the light colored ellipses outline the 90% of genes closest to the bivariate mean based upon the Mahalanobis distance. The Spearman rank correlation coefficient estimate is shown (upper-left). The proportion of genes within each quadrant is indicated in the upper margin (P<0.05, Fisher's exact test), wherein the quadrants are defined by a vertical and horizontal line through the “1” in each axis with the proportion corresponding, left to right to the upper left, the upper right, the lower right and lower left quadrants, respectively. Gene set overlap is presented in (B), (C), (E) and (F) wherein genes within each set were altered with a P<0.05 threshold. P-values from the test of overlap significance are shown (bottom margin, Fisher's exact test). […]"}, "[1]": {"target": "T1, carboxylesterase 2 (CES2) (Homo sapiens, UniProt O00748)", "T1 sequence (O00748 27-559)": "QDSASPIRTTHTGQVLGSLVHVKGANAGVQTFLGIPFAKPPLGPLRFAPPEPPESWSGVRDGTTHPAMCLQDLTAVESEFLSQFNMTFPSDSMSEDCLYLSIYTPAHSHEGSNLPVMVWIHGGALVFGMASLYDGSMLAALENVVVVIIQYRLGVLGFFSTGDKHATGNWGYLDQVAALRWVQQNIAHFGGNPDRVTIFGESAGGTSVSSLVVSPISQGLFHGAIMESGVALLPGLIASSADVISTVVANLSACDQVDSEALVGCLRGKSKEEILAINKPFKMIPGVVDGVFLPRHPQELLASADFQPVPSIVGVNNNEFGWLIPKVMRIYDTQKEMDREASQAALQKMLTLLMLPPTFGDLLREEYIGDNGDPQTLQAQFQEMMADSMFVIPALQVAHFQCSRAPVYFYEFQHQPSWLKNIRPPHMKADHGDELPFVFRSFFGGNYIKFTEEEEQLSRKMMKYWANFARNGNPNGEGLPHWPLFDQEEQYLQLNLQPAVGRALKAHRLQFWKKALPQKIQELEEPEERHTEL", "assay": "Carboxylesterase hydrolysis IDMF v DMF", "assay_type": "in vitro ADME", "conditions": "for remaining parent compound: 1 mg/ml CES2, 37° C., pH 7.4", "method": "IDMF and DMF were subjected to carboxylesterase hydrolysis. […] 1 mg/ml carboxylesterase 2 (CES2) was added to each solution and the solutions incubated at 37° C. for the time periods set forth in Table 5. […] Isosorbide was quantified using CAD. Mobile phase used for the study: 0.1% Formic acid in water; B: Methanol. Column: Luna C18 4.6 mm×100 mm, 5 u (Phenomenex). Flow rate: 1.0 ml/min."}, "[2]": {"tested_on": "human fetal astrocytes derived from cerebral cortex", "assay": "Comparative RT-PCR evaluation of selected genes in astrocytes", "assay_type": "cell-based", "method": "Experiments were performed using human fetal astrocytes derived from cerebral cortex (cat. no. 882A-05f; Cell Applications, Sant Diego, Calif.). Cells were grown to subconfluence in human astrocyte growth medium (cat. no. 820-500, Cell Applications). […] Test materials were added to subconfluent cultures at a concentration of 2.5 μM and cells were incubated for 24 hours.\nRNA was extracted following the incubation period using the RNAeasy Mini Plus kit (Qiagen, Hilden, Germany) and robotic Qiacube Connect station (Qiagen). Samples were shipped on dry ice to the Thermo Fisher Microarray Research Services Laboratory (Santa Clara, Calif.) for transcriptome analysis. RNA quality analysis was performed upon sample receipt using the NanoDrop Lite (Thermo Fisher Scientific, Waltham, Mass.). All samples had 260/280 nm absorbance ratios higher than 1.90, consistent with high-purity RNA.\nThe expression of selected genes was further evaluated using RT-PCR. cDNA was prepared using the AzuraQuant cDNA kit (Azura Genomics, Raynham, Mass.) and PCR reactions were performed using the BioRad iCycler iQ Detection System with Fast Green qPCR Master Mix—Fluor (Azura Genomics). PCR primers were purchased from Realtimeprimers (Elkins Park, Pa.). The ΔΔCt method [Livak K. J. and Schmittgen T. D. Analysis of relative gene expression data using real-time quantitative PCR and the 2(−Delta Delta C(T)) Method. Methods (San Diego, Calif.) 25(4):402-408, 2001]. was used to estimate fold changes with cycle threshold values normalized based upon the expression of glyceraldehyde-3-phosphate dehydrogenase (GAPDH)."}},
  "note": "Where a name gives a salt, the structure may show the parent alone.",
  "data": [
    {"smiles": "COC(=O)/C=C/C(=O)O[C@H]1CO[C@H]2[C@@H]1OC[C@H]2OC(=O)/C=C/C(=O)OC", "note": "[IDMF, isosorbide di-(methyl fumarate)]", "values": [
      {"measurement": "number of genes decreased by IDMF (P<0.05) and increased in MS (P<0.05)", "setting": "cultured astrocytes", "result": 82, "unit": "genes"},
      {"measurement": "protein-coding genes increased by IDMF (FC>1.00) but decreased in MS patients (FC<1.00)", "setting": "cultured astrocytes", "result": 35.08, "unit": "%"},
      {"measurement": "correlation of genome-wide expression responses with those observed in MS patients (Spearman r)", "setting": "cultured astrocytes; cultured astrocytes vs. LCM-dissected MS patient astrocytes", "result": "negatively correlated"},
      {"measurement": "remaining parent compound", "setting": "[1]; 0 minutes", "result": 1.027, "unit": "mM"},
      {"measurement": "remaining parent compound", "setting": "[1]; 15 minutes", "result": 0.072, "unit": "mM"},
      {"measurement": "time by which essentially all is hydrolyzed", "setting": "[1]; CES2, 37° C.", "result": "≤ 15", "unit": "min"},
      {"measurement": "OSGIN1 expression", "setting": "[2]; FIG. 11(B)", "result": "enhancing expression"},
      {"measurement": "expression of key MS-associated genes (IL-6, ICAM1, MALT1, TNFAIP3, IRF1, CXCL8)", "setting": "[2]; FIGS. 11(C) through 11(H)", "result": "marked suppression"}
    ]}
  ]
}
